Assays:
[1] = system: Huh 7.5.1 cells infected with JFH-1 virus; experiment: Microscopic identification of virus suppression effect (cell shape, phase contrast microscope); format: cell-based; conditions: 100 μM; for shapes of Huh 7.5.1 cells: JFH-1 infected
Experimental: About 200,000 Huh 7.5.1 cells were added to a 60×15 mm cell culture dish and every 100 μM of seven ginsenosides (Ro, Re, Rg1, Rg2, Rg3, Rh1, Rh2) per 60×15 mm cell culture dish each was treated. Since it was necessary for ginsenosides in powder formulation to make solutions for the experiments, 50 mM basic concentration solutions for the seven ginsenosides each were prepared and the basic solutions were refrigerated at 4° C. until they were needed.
Non-treatment group (Control), Non-treatment group and DMSO 10 μl treatment group (Control+DMSO 10 μl), JFH-1 virus treatment group (Only JFH-1), JFH-1 virus and DMSO 10 μl treatments group (JFH-1+DMSO 10 μl), JFH-1 virus and Ro 100 uM treatments group (JFH-1+Ro 100 uM), JFH-1 virus and Re 100 uM treatments group (JFH-1+Re 100 uM), JFH-1 virus and Rg1 100 uM treatments group (JFH-1+Rg1 100 uM), JFH-1 virus and Rg2 100 uM treatments group (JFH-1+Rg2 100 uM), JFH-1 virus and Rg3 100 uM treatments group (JFH-1+Rg3 100 uM), JFH-1 virus and Rh1 100 uM treatments group (JFH-1+Rh1 100 uM), JFH-1 virus and Rh2 100 uM treatments group (JFH-1+Rh2 100 uM), JFH-1 virus and Rg1 100 uM treatments group (JFH-1+Rg1 100 uM).
(§1) The experiment was carried out as follow. First, 200,000 Huh 7.5.1 cells were placed in a 60×15 mm cell culture dish. Next day, Japanese Fulminant Hepatitis-1 virus (JFH-1) stock vial which was stored in −70° C. refrigerator was taken out and thawed out in a container filled with ice-water. The culture medium was collected from the cultured 60×15 mm cell culture dish, washed with 1×PBS and collected, again. 1.5 ml of JFH-1 virus solution per 60×15 mm cell culture dish each was added. The dish was shaken to cover the surface sufficiently. The dish was laid in a 5% CO2 incubator at 37° C. for 6 hours and after that, the supernatant was draw out. 1×PBS was spread on the cell surface as slow as possible and after one time washing, cells were collected. 5 ml of cell culture media was added to control and JFH-1 treatments groups. At the last step of virus-infection, 5 ml CM and each […] of ginsenosides which was set to 50 mM concentration were added to the cell culture media. After that, the cell culture media was laid in a 5% CO2 incubator at 37° C. After 72 hours, the following steps were carried out.
As described in the above Example 3, each 100 μM of seven ginsenosides (Ro, Re, Rg1, Rg2, Rg3, Rh1, Rh2) was treated to Huh 7.5.1 cells. After 24 hours and 72 hours, the shapes of Huh 7.5.1 cells were observed using a phase contrast microscope (ECLIPSE TE300, Nicon) of 400× magnifications.

HCV CORE = experiment: Western blotting against HCV CORE in JFH-1 infected Huh 7.5.1 cells; format: cell-based, Hepatitis C virus (JFH-1); conditions: 10 μM, 25 μM and 50 μM
Experimental: as §1
As described in the above Example 3, the Huh 7.5.1 cells were treated with each 100 μM of seven ginsenosides (Ro, Re, Rg1, Rg2, Rg3, Rh1, Rh2). After 72 hours, a western blotting analysis was carried out for analyzing virus suppression effect against HCV CORE and cleaved PARP.
Specific western blotting analysis carried out was as follow. First, the above described samples were prepared, mixed with a sample buffer in tubes and heated at 100° C. for 10 minutes. The tubes were cooled on ice and centrifuged. The electrophoresis was carried out with the above samples and molecular weight markers, and then they were transferred to a PVDF membrane (hydrophobic). After blocking with 5% skin milk for an hour, each primary antibody was added. After staying overnight at 4° C., washings three times for every 10 minutes were conducted, and the blocking was carried out with 5% skin milk for an hour at the room temperature. After that, each secondary antibody was added, and the reaction for an hour and washing three times for every 10 minutes were conducted. Then, the membrane was stained by 1:1 mix with detection reagents A (Luminol Enhancer solution) and B (Peroxide solution) and developed with X ray film.
To examine the dose-dependent anti-virus effect of ginsenoside Rg3, western blotting analysis against cleaved PARP and HCV CORE were carried out with the samples of ginsenosides Rg3 treatment concentration at 10 μM, 25 μM, 50 μM and 100 μM each.
To examine the dose-dependent anti-virus effect of ginsenoside Rh2, western blotting analysis against cleaved PARP and HCV CORE were carried out with the samples of ginsenosides Rh2 treatment concentration at 10 μM, 25 μM and 50 μM each. […]

[2] = system: JFH-1 virus infected Huh 7.5.1 cell; experiment: MTT assay, cytotoxicity of ginsenosides on liver cancer cell line; format: cell-based; conditions: 100 μM, 72 hours
Experimental: MTT assay was conducted to identify cytotoxicity of ginsenosides.
Specifically, the cells (Huh7.5.1) were seeded at the rate of 1×10^4 cells (in 100 μL)/well in 96 well plates, and incubated in 5% CO2 incubator for less than 24 hours. And after the samples were washed with 1×PBS once and treated with the rate of 50 ul JFH-1 virus/well, and replaced in the 5%, CO2 incubator for six hours. After taking out the cell samples from the incubator, the samples were washed with 1×PBS once and replaced in the culturing media comprising 10, 25, 50 and 100 μL concentration of the above stated seven (7) ginsenosides in Example 3, respectively. After the cells were incubated in 5% CO2 incubator for 72 hours, 20 μl of assay reagent, EZ Cytox, was seeded into each well with the care of no bubble producing. And then, the treated cells were incubated in 5% CO2 incubator for 2.5 hours, followed by examining absorbance at 420 nm with Microplate Reader (Molecular Devices, Minn.). DMSO was the solvent used when treating with ginsenoside, and both the control group and the cells infected with JFH-1 group were also treated with the solvent DMSO.

CC(C)=CCC[C@](C)(O)[C@H]1CC[C@]2(C)[C@@H]1[C@H](O)C[C@@H]1[C@@]3(C)CC[C@H](O[C@@H]4O[C@H](CO)[C@@H](O)[C@H](O)[C@H]4O)C(C)(C)[C@@H]3CC[C@]12C [ginsenoside Rh2, reference compound]
cell survival under treatment [1]: all cells became extinct
shapes of Huh 7.5.1 cells ([1]; 24 hours after treatment): No cell were remained due to the apoptosis of all cells
shapes of Huh 7.5.1 cells ([1]; 72 hours after treatment): No cell were remained due to the apoptosis of all cells
virus suppression effect (HCV CORE), dose dependence (HCV CORE): dose-dependent manner
cytotoxicity (MTT assay) [2]: cytotoxic effect was shown predominantly
